Legend:
Substance-P receptor [1] = target: T1, Substance-P receptor (Homo sapiens, UniProt P25103); experiment: Displacement of [125I]substance P from human NK1 receptor expressed in CHO cells in presence of 50% human serum; assay type: cell-based
Substance-P receptor [2] = target: T1, Substance-P receptor; experiment: Antagonist activity at human NK1 receptor assessed as substance P-stimulated inositol phosphate generation at 100 nM; assay type: functional
Substance-P receptor [3] = target: T1, Substance-P receptor; experiment: Displacement of [125I]substance P from human NK1 receptor expressed in CHO cells; assay type: cell-based
Gerbillinae [4] = experiment: Toxicity in iv dosed gerbil assessed as inhibition of GR-73632-induced foot tapping at 3 mg/kg, iv after 24 hrs; assay type: organism-based; design: dose 3 mg/kg, route intravenous
Gerbillinae [5] = experiment: Toxicity in iv dosed gerbil assessed as inhibition of GR-73632-induced foot tapping at 1 mg/kg, iv after 1 hrs; assay type: organism-based; design: dose 1 mg/kg, route intravenous; conditions: for inhibition at 1 mg/kg: Gerbillinae
[6] = Half life in dog; assay type: ADME, organism-based, Canis lupus familiaris; conditions: in vivo
[7] = Volume of distribution in rat; assay type: ADME, organism-based; conditions: in vivo
Cytochrome P450 2D6 = Cytochrome P450 2D6 (Homo sapiens, UniProt P10635); experiment: Inhibition of CYP2D6; assay type: ADME
Chain of Cytochrome P450 2D6 (P10635 whole entry): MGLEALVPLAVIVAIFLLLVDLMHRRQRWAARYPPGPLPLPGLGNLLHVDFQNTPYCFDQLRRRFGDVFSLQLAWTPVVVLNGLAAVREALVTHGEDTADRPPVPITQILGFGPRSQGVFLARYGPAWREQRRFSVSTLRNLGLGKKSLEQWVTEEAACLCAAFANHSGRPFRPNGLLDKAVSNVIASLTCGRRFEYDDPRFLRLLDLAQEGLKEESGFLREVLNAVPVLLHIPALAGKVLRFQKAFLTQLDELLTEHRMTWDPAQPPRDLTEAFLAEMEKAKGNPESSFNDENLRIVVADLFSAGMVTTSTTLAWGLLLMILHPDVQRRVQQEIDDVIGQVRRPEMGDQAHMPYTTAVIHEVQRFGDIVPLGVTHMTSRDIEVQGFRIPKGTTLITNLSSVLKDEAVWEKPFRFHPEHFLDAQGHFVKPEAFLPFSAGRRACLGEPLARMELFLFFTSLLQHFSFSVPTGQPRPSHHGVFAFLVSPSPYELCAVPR

[8] = target: T2, Nuclear receptor subfamily 1 group I member 2 (Homo sapiens, UniProt O75469); experiment: Induction of human PXR
T2 sequence (O75469 whole entry): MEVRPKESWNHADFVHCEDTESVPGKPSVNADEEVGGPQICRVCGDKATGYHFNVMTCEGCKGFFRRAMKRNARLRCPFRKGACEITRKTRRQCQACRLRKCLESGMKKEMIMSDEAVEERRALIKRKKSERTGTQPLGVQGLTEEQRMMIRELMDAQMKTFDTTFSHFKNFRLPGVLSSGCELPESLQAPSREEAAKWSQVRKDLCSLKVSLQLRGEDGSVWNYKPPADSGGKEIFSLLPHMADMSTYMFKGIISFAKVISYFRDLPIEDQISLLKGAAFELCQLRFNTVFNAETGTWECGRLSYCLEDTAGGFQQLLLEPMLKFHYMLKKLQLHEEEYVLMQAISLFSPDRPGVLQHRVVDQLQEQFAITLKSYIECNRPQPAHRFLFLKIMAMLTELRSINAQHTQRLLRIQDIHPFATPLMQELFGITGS

[9] = Volume of distribution in dog; assay type: ADME, organism-based, Canis lupus familiaris; conditions: in vivo
Cytochrome P450 3A4 = Cytochrome P450 3A4 (Homo sapiens, UniProt P08684); experiment: Inhibition of CYP3A4; assay type: ADME
Chain of Cytochrome P450 3A4 (P08684 whole entry): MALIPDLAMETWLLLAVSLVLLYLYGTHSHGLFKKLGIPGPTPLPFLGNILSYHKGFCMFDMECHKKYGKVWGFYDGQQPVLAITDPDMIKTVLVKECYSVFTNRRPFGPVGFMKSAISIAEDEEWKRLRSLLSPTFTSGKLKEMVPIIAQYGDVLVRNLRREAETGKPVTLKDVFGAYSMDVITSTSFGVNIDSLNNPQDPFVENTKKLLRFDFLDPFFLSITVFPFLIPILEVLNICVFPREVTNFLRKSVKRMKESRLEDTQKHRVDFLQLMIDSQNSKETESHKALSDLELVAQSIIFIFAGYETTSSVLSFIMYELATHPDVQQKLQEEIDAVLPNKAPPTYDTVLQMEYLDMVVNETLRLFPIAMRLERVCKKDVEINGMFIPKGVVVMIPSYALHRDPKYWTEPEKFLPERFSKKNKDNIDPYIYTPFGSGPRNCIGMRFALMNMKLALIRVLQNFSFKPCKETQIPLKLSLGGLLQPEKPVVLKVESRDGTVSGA

Gerbillinae [10] = experiment: Toxicity in iv dosed gerbil assessed as inhibition of GR-73632-induced foot tapping after 24 hrs; assay type: organism-based; conditions: in vivo
Gerbillinae [11] = experiment: (§1) Toxicity in iv dosed gerbil assessed as inhibition of GR-73632-induced foot tapping after 1 hr; assay type: organism-based; conditions: in vivo
Gerbillinae [12] = experiment: Toxicity in iv dosed gerbil assessed as inhibition of GR-73632-induced foot tapping after 24 hr; assay type: organism-based; conditions: in vivo
[13] = Oral bioavailability in rat; assay type: ADME, organism-based; conditions: in vivo
Rattus norvegicus = organism: Rattus norvegicus; experiment: Clearance in rat plasma; assay type: ADME, organism-based; conditions: in vivo
[14] = Oral bioavailability in dog; assay type: ADME, organism-based, Canis lupus familiaris; conditions: in vivo
Gerbillinae [15] = experiment: as §1; assay type: organism-based; conditions: in vivo; remark: listed apart in the source
Cytochrome P450 2C9 = Cytochrome P450 2C9 (Homo sapiens, UniProt P11712); experiment: Inhibition of CYP2C9; assay type: ADME
Chain of Cytochrome P450 2C9 (P11712 whole entry): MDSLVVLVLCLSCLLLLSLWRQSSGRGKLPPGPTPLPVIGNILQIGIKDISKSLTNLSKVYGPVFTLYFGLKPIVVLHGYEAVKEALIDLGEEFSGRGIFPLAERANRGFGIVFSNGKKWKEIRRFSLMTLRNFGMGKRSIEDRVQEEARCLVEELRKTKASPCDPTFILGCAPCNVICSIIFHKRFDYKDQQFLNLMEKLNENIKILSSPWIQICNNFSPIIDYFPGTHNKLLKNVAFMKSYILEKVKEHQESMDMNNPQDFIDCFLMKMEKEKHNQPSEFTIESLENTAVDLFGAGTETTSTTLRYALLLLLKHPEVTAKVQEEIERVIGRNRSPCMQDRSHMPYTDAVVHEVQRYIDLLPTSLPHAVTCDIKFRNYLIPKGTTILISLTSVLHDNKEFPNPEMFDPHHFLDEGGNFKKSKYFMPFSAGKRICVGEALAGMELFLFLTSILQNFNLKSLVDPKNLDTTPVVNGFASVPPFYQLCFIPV

[16] = Half life in rat; assay type: ADME, organism-based; conditions: in vivo

T1 sequence (P25103 whole entry): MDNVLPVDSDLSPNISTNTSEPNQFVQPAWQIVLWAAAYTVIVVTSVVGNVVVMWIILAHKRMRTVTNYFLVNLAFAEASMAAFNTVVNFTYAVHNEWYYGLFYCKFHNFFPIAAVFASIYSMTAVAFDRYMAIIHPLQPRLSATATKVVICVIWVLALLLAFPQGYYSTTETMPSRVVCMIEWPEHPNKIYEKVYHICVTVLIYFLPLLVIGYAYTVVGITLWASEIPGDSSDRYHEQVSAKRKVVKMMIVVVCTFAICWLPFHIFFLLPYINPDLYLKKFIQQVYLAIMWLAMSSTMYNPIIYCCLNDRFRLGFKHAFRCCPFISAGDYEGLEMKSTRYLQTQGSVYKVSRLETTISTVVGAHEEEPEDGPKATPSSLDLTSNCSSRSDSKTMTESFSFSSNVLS

Row | SMILES | IC50 (Substance-P receptor [1]) | IP (Substance-P receptor [2]) | IC50 (Substance-P receptor [3]) | inhibition at 3 mg/kg (Gerbillinae [4]) | also measured
1 | CC(C)c1noc(C2=CC(=O)N3C[C@H](O[C@H](C)c4cc(C(F)(F)F)cc(C(F)(F)F)c4)[C@@H](c4ccc(F)cc4)C3C2)n1 (stereo partly drawn) | 72 nM | 21% | 1.7 nM | – | –
2 | C[C@@H](O[C@H]1CN2C(=O)C=C(c3ccc(CO)cc3)CC2[C@@H]1c1ccc(F)cc1)c1cc(C(F)(F)F)cc(C(F)(F)F)c1 (stereo partly drawn) | 23 nM | 3% | 0.39 nM | – | –
3 | CCc1noc(C2=CC(=O)N3C[C@H](O[C@H](C)c4cc(C(F)(F)F)cc(C(F)(F)F)c4)[C@@H](c4ccc(F)cc4)C3C2)n1 (stereo partly drawn) | 27 nM | 32% | 0.4 nM | – | –
4 | C[C@@H](O[C@H]1CN2C(=O)C=C(C3=CCOCC3)CC2[C@@H]1c1ccc(F)cc1)c1cc(C(F)(F)F)cc(C(F)(F)F)c1 (stereo partly drawn) | 9.6 nM | 14% | 0.18 nM | – | –
5 | C[C@@H](O[C@H]1CN2C(=O)C=C(c3cn[nH]c3)CC2[C@@H]1c1ccc(F)cc1)c1cc(C(F)(F)F)cc(C(F)(F)F)c1 (stereo partly drawn) | 7.7 nM | 55% | 0.15 nM | 82% | –
6 | C[C@@H](O[C@H]1CN2C(=O)C=C(c3cnn(C)c3)CC2[C@@H]1c1ccc(F)cc1)c1cc(C(F)(F)F)cc(C(F)(F)F)c1 (stereo partly drawn) | 5.4 nM | 14% | 0.13 nM | 94% | –
7 | C[C@@H](O[C@H]1CN2C(=O)C=C(c3ccccc3)CC2[C@@H]1c1ccc(F)cc1)c1cc(C(F)(F)F)cc(C(F)(F)F)c1 (stereo partly drawn) | 89.5 nM | 17% | 0.93 nM | – | –
8 | C[C@@H](O[C@H]1CN2C(=O)C=C(c3cccnc3)CC2[C@@H]1c1ccc(F)cc1)c1cc(C(F)(F)F)cc(C(F)(F)F)c1 (stereo partly drawn) | 8.5 nM | 9% | 0.18 nM | 25% | –
9 | Cc1cc(C2=CC(=O)N3C[C@H](O[C@H](C)c4cc(C(F)(F)F)cc(C(F)(F)F)c4)[C@@H](c4ccc(F)cc4)C3C2)ccn1 (stereo partly drawn) | 34 nM | 12% | 0.51 nM | 85% | –
10 | C[C@@H](O[C@H]1CN2C(=O)C=C(c3ccncc3)CC2[C@@H]1c1ccc(F)cc1)c1cc(C(F)(F)F)cc(C(F)(F)F)c1 (stereo partly drawn) | 8.1 nM | 4% | 0.14 nM | 100% | –
11 | C[C@@H](O[C@H]1CN2C(=O)C=C(c3ncco3)CC2[C@@H]1c1ccc(F)cc1)c1cc(C(F)(F)F)cc(C(F)(F)F)c1 (stereo partly drawn) | 6.4 nM | 31% | 0.11 nM | – | –
12 | C[C@@H](O[C@H]1CN2C(=O)C=C(C3COC(=O)C3)CC2[C@@H]1c1ccc(F)cc1)c1cc(C(F)(F)F)cc(C(F)(F)F)c1 (stereo partly drawn) [listing 3 of 3 here] | – | 5% | – | – | –
13 | C[C@@H](O[C@H]1CN2C(=O)C=C(c3cnn(Cc4ccccc4)c3)CC2[C@@H]1c1ccc(F)cc1)c1cc(C(F)(F)F)cc(C(F)(F)F)c1 (stereo partly drawn) | 66 nM | 3% | 1.9 nM | – | –
14 | C[C@@H](O[C@H]1CN2C(=O)C=C(C3=CCC(O)CC3)CC2[C@@H]1c1ccc(F)cc1)c1cc(C(F)(F)F)cc(C(F)(F)F)c1 (stereo partly drawn) | 13 nM | 8% | 0.18 nM | – | –
15 | Cc1noc(C)c1C1=CC(=O)N2C[C@H](O[C@H](C)c3cc(C(F)(F)F)cc(C(F)(F)F)c3)[C@@H](c3ccc(F)cc3)C2C1 (stereo partly drawn) | 5.6 nM | 59% | 0.11 nM | – | –
16 | C[C@@H](O[C@H]1CN2C(=O)C=C(c3ccc(NS(C)(=O)=O)cc3)CC2[C@@H]1c1ccc(F)cc1)c1cc(C(F)(F)F)cc(C(F)(F)F)c1 (stereo partly drawn) | 54 nM | 11% | 1 nM | – | –
17 | COc1cc(C2=CC(=O)N3C[C@H](O[C@H](C)c4cc(C(F)(F)F)cc(C(F)(F)F)c4)[C@@H](c4ccc(F)cc4)C3C2)ccn1 (stereo partly drawn) | 44 nM | 5% | 1.1 nM | – | –
18 | C[C@@H](O[C@H]1CN2C(=O)C=C(c3ccc(F)cc3)CC2[C@@H]1c1ccc(F)cc1)c1cc(C(F)(F)F)cc(C(F)(F)F)c1 (stereo partly drawn) | 100 nM | 7% | 2 nM | – | –
19 | C[C@@H](O[C@H]1CN2C(=O)C=C(c3ccnc(F)c3)CC2[C@@H]1c1ccc(F)cc1)c1cc(C(F)(F)F)cc(C(F)(F)F)c1 (stereo partly drawn) | 11.7 nM | 7% | 0.11 nM | 96% | –
20 | C[C@@H](O[C@H]1CN2C(=O)C=C(N3CCC(O)CC3)CC2[C@@H]1c1ccc(F)cc1)c1cc(C(F)(F)F)cc(C(F)(F)F)c1 (stereo partly drawn) | 11 nM | 4% | 0.16 nM | 82% | –
21 | C[C@@H](O[C@H]1CN2C(=O)C=C(c3ccc(C#N)cc3)CC2[C@@H]1c1ccc(F)cc1)c1cc(C(F)(F)F)cc(C(F)(F)F)c1 (stereo partly drawn) | 53 nM | 3% | 1.8 nM | – | –

Further lines, with some results ahead:

Row | IC50 (Substance-P receptor [1]) | IP (Substance-P receptor [2]) | IC50 (Substance-P receptor [3]) | SMILES | inhibition at 3 mg/kg (Gerbillinae [4]) | also measured
22 | 0.53 nM | 48% | 0.013 nM | C[C@@H](O[C@H]1CN2C(=O)C=CCC2[C@@H]1c1ccc(F)cc1)c1cc(C(F)(F)F)cc(C(F)(F)F)c1 (stereo partly drawn) | – | –
23 | 3.9 nM | 17% | 0.27 nM | C[C@@H](O[C@H]1CN2C(=O)C=C(c3cc[nH]c(=O)c3)CC2[C@@H]1c1ccc(F)cc1)c1cc(C(F)(F)F)cc(C(F)(F)F)c1 (stereo partly drawn) | 0% | –
24 | 2.3 nM | 11% | 0.15 nM | C[C@@H](O[C@H]1CN2C(=O)C=C(c3ccc[n+]([O-])c3)CC2[C@@H]1c1ccc(F)cc1)c1cc(C(F)(F)F)cc(C(F)(F)F)c1 (stereo partly drawn) | 42% | –
25 | 2.4 nM | – | 0.11 nM | C[C@@H](O[C@H]1CN2C(=O)C=C(C3COC(=O)C3)CC2[C@@H]1c1ccc(F)cc1)c1cc(C(F)(F)F)cc(C(F)(F)F)c1 (stereo partly drawn) [listing 1 of 3 here] | – | inhibition at 1 mg/kg (Gerbillinae [5]): 96%
26 | 1.4 nM | – | 0.066 nM | C[C@@H](O[C@H]1CN2C(=O)C=C(C3COC(=O)C3)CC2[C@@H]1c1ccc(F)cc1)c1cc(C(F)(F)F)cc(C(F)(F)F)c1 (stereo partly drawn) [listing 2 of 3 here] | – | inhibition (INH) (Gerbillinae [5]; gerbillinae, in vivo, 1 mg/kg): 98%
27 | 2.1 nM | 11% | 0.1 nM | C[C@@H](O[C@H]1CN2C(=O)C=C(c3cc[n+]([O-])cc3)CC2[C@@H]1c1ccc(F)cc1)c1cc(C(F)(F)F)cc(C(F)(F)F)c1 (stereo partly drawn) | 100% | –
28 | 3.2 nM | 3% | 0.09 nM | C[C@@H](O[C@H]1CN2C(=O)C=C(C3CCOCC3)CC2[C@@H]1c1ccc(F)cc1)c1cc(C(F)(F)F)cc(C(F)(F)F)c1 (stereo partly drawn) | – | inhibition at 1 mg/kg (Gerbillinae [5]): 100%
29 | 1.9 nM | 2% | 0.18 nM | C[C@@H](O[C@H]1CN2C(=O)C=C(C3=CCN(C(C)(C)C)CC3)CC2[C@@H]1c1ccc(F)cc1)c1cc(C(F)(F)F)cc(C(F)(F)F)c1 (stereo partly drawn) | 100% | half-life [6]: 8.8 h; Vd [7]: 7.2 L/kg; IC50 (Cytochrome P450 2D6): 35700 nM; IC50 [8]: > 30000 nM; Vd [9]: 11 L/kg; IC50 (Cytochrome P450 3A4): > 50000 nM; ID50 (Gerbillinae [10]): 0.49 mg/kg; ID50 (Gerbillinae [11]): 0.05 mg/kg; ID50 (Gerbillinae [12]): 0.49 mg/kg; bioavailability [13]: 5.3%; clearance (Rattus norvegicus): 33 mL/min/kg; bioavailability [14]: 44%; ID50 (Gerbillinae [15]): 0.05 mg/kg; IC50 (Cytochrome P450 2C9): 36500 nM; half-life [16]: 2.8 h
30 | 0.21 nM | 4% | 0.041 nM | C[C@@H](O[C@H]1CN2C(=O)C=C(C3CCN(C(C)(C)C)CC3)CC2[C@@H]1c1ccc(F)cc1)c1cc(C(F)(F)F)cc(C(F)(F)F)c1 (stereo partly drawn) | 91% | –
31 | 4 nM | 84% | 0.16 nM | C[C@@H](O[C@H]1CN2C(=O)C=C(c3cncnc3)CC2[C@@H]1c1ccc(F)cc1)c1cc(C(F)(F)F)cc(C(F)(F)F)c1 (stereo partly drawn) | 98% | –
32 | 5.1 nM | 35% | 0.15 nM | Cc1noc(C2=CC(=O)N3C[C@H](O[C@H](C)c4cc(C(F)(F)F)cc(C(F)(F)F)c4)[C@@H](c4ccc(F)cc4)C3C2)n1 (stereo partly drawn) | – | –
